{"source": "patent US5892029A", "about": "“3-hydroxy-2(1H)-pyridinone chelating agents” (priority 1997, dated 1999)", "key": {"[1]": {"assay": "Fe(III) complex formation constants and pM", "type": "binding", "conditions": "pH 7.4; chelator 10 and metal ion 1 μM", "text": "The new HOPO monomers display high affinity for ferric ions. For example, 1-methyl-4(1-propylcarbamoyl)-3-hydroxy-2(1H)-pyridinone (Formula 9C, backbone=n-propyl, R'=H, R1 =methyl) has overall complex binding constants on the order of 10^28.7 M-3 for Fe(III). However, because of the 3:1 stoichiometry of the bidentate monomer/Fe complex, its stability is strongly dependent on its concentration (by the 3rd power). Generally, the pM concept was used to define the concentration of unchelated metal ion at physiological pH (7.4), and at chelator and metal ion concentrations (10 and 1 μM, respectively) which are those expected in the plasma of a chelator-treated patient. […] Since the multidentate 3,2-HOPO ligands have higher pM values than their bidentate analogs, they have stronger scavenging power for iron and actinides in vivo. For example, the bidentate compound 1-methyl-4(1-propylcarbamoyl)-3-hydroxy-2(1H)-pyridinone has a pM of 19.26 for Fe(III), while the hexadentate compound TREN-Me-3,2-HOPO (Formula 12, m=1) has a pM of 26.69 for Fe(III)."}, "[2]": {"assay": "Chemical and physical properties (solubility, pKa, pH, hygroscopicity)", "type": "physicochemical"}, "[3]": {"assay": "Promoting excretion of 241Am(III) in mice by injected ligands (Table 5)", "type": "in vivo", "text": "(§1) Animal studies were completed using methods detailed in Radiation Protection Dosimetry, 1994, 53, 305: P. W. Durbin et al., \"In Vivo Chelation of Am(III), Pu(IV), Np(V) and U(VI) in Mice by TREN-(Me-3,2-HOPO)\"; Radiation Protection Dosimetry, 1989, 17, 351: P. W. Durbin et al., \"Removal of ^238 Pu(IV) from Mice by Polycatechoylate, -Hydroxamate or -Hydroxypyridinonate Ligands\"; Radiation Research, 1984, 99, 85: P. W. Durbin et al., \"Specific Sequestering Agents for the Actinides . . . \"; Radiation Research, 1984, 99, 106: P. W. Durbin et al., \"Removal of Pu and Am from Beagles and Mice . . . \"; Radiation Research, 1980, 81, 170: R. D. Lloyd et al., and P. W. Durbin et al., \"Specific Sequestering Agents for the Actinides . . . \". The foregoing articles are hereby incorporated by reference.\nRadionuclides used in the animal studies came from a variety of sources. The ^238 Pu(IV) citrate and ^241 Am(III) citrate solutions were prepared for animal injection by 8- to 10-fold dilution with 0.14M NaC1 (pH 4) of concentrated stock solutions (0.08M sodium citrate buffer) that had been held in frozen storage at Lawrence Berkeley Laboratory (hereinafter LBL) for several years. [The ^238 Pu(IV) was originally obtained from D. R. Atherton at the University of Utah Radiobiology Laboratory, Salt Lake City. The ^241 Am(III) solution had been obtained many years earlier from the LBL Actinide Chemistry group.]\n(§2) One of the novel chelating agents of the present invention, TREN-Me-3,2-HOPO, was also tested for effectiveness in promoting excretion of ^241 AM(III), ^237 Np(V), and ^232 U(VI) by injection into mice, as follows: Mice, in groups of five, each received an intravenous injection of (a) 1100 Bq of ^241 Am(III) in 0.2 mL of citrate buffer, (b) 150 Bq of ^232 UO2 Cl2 plus 3.6 mg of ^235 UO2 Cl2 in 0.2 mL of saline, or (c) 200 Bq of ^237 NpO2 Cl ([…] of ^237 NPO2 Cl) in 0.2 mL of saline. Three to five minutes later, 30 μmol/kg of TREN-Me-3,2-HOPO was injected intraperitoneally in 0.5 mL of saline. The mice were killed 24 hours after the actinide injection, frozen, and dissected after partial thawing. The skeleton, soft tissues, and separated excreta were radioanalyzed by counting the ^241 Am gamma rays, or the alpha particles emitted by ^237 Np or ^232 U (and its ingrowing daughters). Removal of those actinides from mice by injected TREN-Me-3,2-HOPO is summarized in Table 5, which also includes data for mice similarly treated with CaNa3 -DTPA and for actinide-injected controls. […] The structure of Am(III)-TREN-Me-3,2-HOPO is considered to resemble that of the Gd(III) complexes (see Example 20). Complexation of the fraction of Np(V) that is reduced in vivo to Np(IV) is considered to resemble that of Pu(IV). Complexation of U(VI) is considered to take place through binding to UO2^2+.\n(§3) ^a Ligands (30 μmol/kg) i.p. at 3 to 5 min after actinide i.v.;"}, "[4]": {"assay": "Promoting excretion of U(VI) in mice by injected ligands (Table 5)", "type": "in vivo", "text": "as §1\nThe ^232 U was obtained from the Isotope Products Laboratory, Burbank, Calif., and ^234,235 U was obtained as U metal from long-held LBL storage. The two U sources were combined and dissolved in 6N HNO3, dried, and redissolved in 0.1N HCl. The daughter radioactivities were removed by elution from a Dowex-50X4 column (22 cm length, 0.7 cm diameter, 1.5 mL min^-1 flow rate) with 3.2N HCl. The U fractions (previously identified by a trial run with ^234,235 U alone) were combined, dried, and redissolved in 0.14M NaCl at pH 5.5.\nas §2, §3"}, "[5]": {"assay": "Promoting excretion of 237Np(V) in mice by injected ligands (Table 5)", "type": "in vivo", "text": "as §1\nThe ^237 Np(V) was obtained from J. Bucher of the LBL Actinide Chemistry group as NpO2 Cl in 0.1M HCl. It was diluted to the desired radioactivity concentration in 0.14M NaCl and the pH was adjusted to about 4.5 with NaOH just before use.\nas §2, §3"}, "[6]": {"assay": "Promoting excretion of 238Pu(IV) in mice by orally administered ligands (Table 4)", "type": "in vivo", "conditions": "30 μmol/kg by gavage", "text": "as §1\nRadionuclides used in the animal studies came from a variety of sources. […]\nThe novel chelating agents of the present invention were tested for their effectiveness in promoting excretion of ^238 Pu(IV) by oral administration to mice as follows. […] The ^238 Pu(IV) in skeleton, soft tissues, and separated excreta was determined by counting the ^234 U L x-rays. […]"}, "[7]": {"type": "in vivo, mice", "conditions": "for body weight / plasma urea N: mean ± SD", "protocol": "The test of acute toxicity of these novel ligands was carried out as follows. […] The ligand was dissolved in 0.5 to 1.0 ml of saline at pH 7 to 8. After a period of observation, the mice were killed, selected tissues were removed and fixed for histopathological examination,and unusual findings at autopsy were recorded."}, "[8]": {"conditions": "30 μmol/kg i.p. at 3 to 5 min after actinide i.v."}, "[9]": {"conditions": "30 μmol/kg i.p. at 3 to 5 min after actinide i.v., pooled"}, "[10]": {"conditions": "protocol I: 100 μmol/kg × 10 daily i.p., 11 d"}, "[11]": {"conditions": "protocol I: 100 μmol/kg × 10 daily i.p., 21 d"}, "[12]": {"conditions": "protocol II: 500 μmol/kg × 2 in 8 h i.p., 8 d"}}, "note": "Entries after “also recorded” stand apart in the source; their conditions may differ. Read-outs that look alike come from different tables or passages of the source."}
{"smiles": "CCCNC(=O)c1ccn(C)c(=O)c1O", "note": "[3-hydroxy-1-methyl-4(1-propylcarbamoyl)-2(1H)-pyridinone]", "values": [{"measurement": "pM for Fe(III)", "setting": "[1]", "result": 19.26}, {"measurement": "solubility (in words)", "setting": "[2]", "result": "very soluble in water as well as organic solvents"}]}
{"smiles": "Cn1ccc(C(=O)NCCN(CCNC(=O)c2ccn(C)c(=O)c2O)CCNC(=O)c2ccn(C)c(=O)c2O)c(O)c1=O", "note": "[TREN-Me-3,2-HOPO]", "values": [{"measurement": "reduction of Am content (in words)", "setting": "[3]; 30 μmol/kg i.p.", "result": "reduced the body content of all three actinides to a significantly greater degree than CaNa3 -DTPA; also recorded: the Am content of all tissues was greatly reduced"}, {"measurement": "Am(III) in liver at 24 h", "setting": "[3]; [8]", "result": "1.0 ± 0.6% of injected actinide"}, {"measurement": "Am(III) in skeleton at 24 h", "setting": "[3]; [8]", "result": "8.1 ± 6% of injected actinide"}, {"measurement": "Am(III) in soft tissue at 24 h", "setting": "[3]; [8]", "result": "1.6 ± 0.6% of injected actinide"}, {"measurement": "Am(III) in whole body at 24 h", "setting": "[3]; [8]", "result": "11 ± 1.4% of injected actinide"}, {"measurement": "Am(III) excreta: feces and GI contents", "setting": "[3]; [9]", "result": "8% of injected actinide"}, {"measurement": "Am(III) excreta: urine 0-24 h", "setting": "[3]; [9]", "result": "51% of injected actinide"}, {"measurement": "Am(III) in kidneys at 24 h", "setting": "[3]; [9]", "result": "0.2% of injected actinide"}, {"measurement": "pM for Fe(III)", "setting": "[1]", "result": 26.69}, {"measurement": "reduction of U content (in words)", "setting": "[4]; 30 μmol/kg i.p.", "result": "reduced the body content of all three actinides to a significantly greater degree than CaNa3 -DTPA; also recorded: more than one-half of the U burden in the kidneys was removed"}, {"measurement": "U(VI) in kidneys at 24 h", "setting": "[4]; [8]", "result": "1.6 ± 0.3% of injected actinide"}, {"measurement": "U(VI) in liver at 24 h", "setting": "[4]; [8]", "result": "0.6 ± 0.3% of injected actinide"}, {"measurement": "U(VI) in skeleton at 24 h", "setting": "[4]; [8]", "result": "16 ± 2.4% of injected actinide"}, {"measurement": "U(VI) in soft tissue at 24 h", "setting": "[4]; [8]", "result": "1.6 ± 0.3% of injected actinide"}, {"measurement": "U(VI) in whole body at 24 h", "setting": "[4]; [8]", "result": "9.4 ± 6.0% of injected actinide"}, {"measurement": "U(VI) excreta: feces and GI contents", "setting": "[4]; [9]", "result": "2.3% of injected actinide"}, {"measurement": "U(VI) excreta: urine 0-24 h", "setting": "[4]; [9]", "result": "70% of injected actinide"}, {"measurement": "reduction of Np content (in words)", "setting": "[5]; 30 μmol/kg i.p.", "result": "reduced the body content of all three actinides to a significantly greater degree than CaNa3 -DTPA; also recorded: the Np content of the soft tissues was significantly reduced"}, {"measurement": "Np(V) in liver at 24 h", "setting": "[5]; [8]", "result": "3.8 ± 5.7% of injected actinide"}, {"measurement": "Np(V) in skeleton at 24 h", "setting": "[5]; [8]", "result": "34 ± 4.5% of injected actinide"}, {"measurement": "Np(V) in soft tissue at 24 h", "setting": "[5]; [8]", "result": "3.1 ± 1.1% of injected actinide"}, {"measurement": "Np(V) in whole body at 24 h", "setting": "[5]; [8]", "result": "42 ± 11% of injected actinide"}, {"measurement": "Np(V) excreta: feces and GI contents", "setting": "[5]; [9]", "result": "17% of injected actinide"}, {"measurement": "Np(V) excreta: urine 0-24 h", "setting": "[5]; [9]", "result": "40% of injected actinide"}, {"measurement": "Np(V) in kidneys at 24 h", "setting": "[5]; [9]", "result": "1.0% of injected actinide"}, {"measurement": "effectiveness of Pu removal, oral (in words)", "setting": "[6]", "result": "the most effective both (by oral and injection) cases"}, {"measurement": "body weight", "setting": "[7]; [10]", "result": "102 ± 1", "unit": "percent control"}, {"measurement": "plasma urea N", "setting": "[7]; [10]", "result": "112 ± 10", "unit": "percent control"}, {"measurement": "no. of survivors", "setting": "[7]; protocol I: 100 μmol/kg × 10 daily i.p., 11 d, of 5 mice", "result": 5}, {"measurement": "body weight", "setting": "[7]; [11]", "result": "106 ± 4", "unit": "percent control"}, {"measurement": "plasma urea N", "setting": "[7]; [11]", "result": "120 ± 9", "unit": "percent control"}, {"measurement": "no. of survivors", "setting": "[7]; protocol I: 100 μmol/kg × 10 daily i.p., 21 d, of 5 mice", "result": 5}, {"measurement": "body weight", "setting": "[7]; [12]", "result": "101 ± 4", "unit": "percent control"}, {"measurement": "plasma urea N", "setting": "[7]; [12]", "result": "119 ± 15", "unit": "percent control"}, {"measurement": "no. of survivors", "setting": "[7]; protocol II: 500 μmol/kg × 2 in 8 h i.p., 8 d, of 19 (TREN) or 10 (H(2,2)) mice", "result": 19}]}
